± gives the standard deviation of the averaged measurements.

Our source for the surviving fraction values is the supplement of paper PMC6045584.

Compound in test [1]: Nc1nc2[nH]cnc2c(=S)[nH]1 [TIOGUANINE]
Kind of test: surviving fraction relative to DMSO-only wells; higher = less growth inhibition. To be noted: exposure time: 5 days. Put shortly:
(§1)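 At 250–500 cells per well in 384-well plates, log-phase tumour cell lines were seeded and, 24 hours on, exposed continuously for five days to inhibitors at 0.5, 1, 5, 10, 50, 100, 500 and 1000 nM. Viability readout was CellTiter-Glo luminescence, reported as surviving fraction normalised to the median of DMSO-only wells.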

Compound in test [2]: CCCCCCCCCCCCCCCC(=O)Nc1ccn([C@@H]2O[C@H](CO)[C@@H](O)[C@@H]2C#N)c(=O)n1 [SAPACITABINE]
The description is as above. As to conditions: exposure time: 5 days. The gist of the method:
as §1

For HMT3552 BREAST, the surviving fraction in test [1] (0.5 nM) was found to be 1.11; in test [1] (1 nM), 1.06; in test [1] (5 nM), 1.05; in test [1] (10 nM) it was 1.04; in test [1] (50 nM) it was 1.05; in test [1] (100 nM), 1.12. Further, the surviving fraction in test [1] (500 nM) was 0.591; in test [1] (1000 nM) it was 0.38; in test [2] (0.5 nM), 0.838 ± 0.009; in test [2] (1 nM), 0.825 ± 0.075; in test [2] (5 nM), 0.943 ± 0.027; in test [2] (10 nM), 0.887 ± 0.053. Further, the surviving fraction worked out at 1.141 ± 0.0031 in test [2] (50 nM), 1 ± 0.093 in test [2] (100 nM), 0.418 ± 0.019 in test [2] (500 nM) and 0.303 ± 0.024 in test [2] (1000 nM).
In the case of HS57T BREAST, the surviving fraction turned out to be 0.9547 ± 0.0035 in test [1] (0.5 nM); 1.02 ± 0.087 in test [1] (1 nM); 0.99 ± 0.03 in test [1] (5 nM); 0.988 ± 0.029 in test [1] (10 nM); 0.928 ± 0.04 in test [1] (50 nM); 1.03 ± 0.06 in test [1] (100 nM). The surviving fraction in test [1] (500 nM) worked out at 0.928 ± 0.016; in test [1] (1000 nM), 0.945 ± 0.064; in test [2] (0.5 nM), 0.892 ± 0.016; in test [2] (1 nM), 0.885 ± 0.028; in test [2] (5 nM), 0.904 ± 0.051; in test [2] (10 nM), 0.853 ± 0.027. Also, the surviving fraction in test [2] (50 nM) worked out at 0.75 ± 0.024; in test [2] (100 nM), 0.612 ± 0.045; in test [2] (500 nM), 0.325 ± 0.037; in test [2] (1000 nM), 0.246 ± 0.011.
Take HS578T BREAST: the surviving fraction in test [1] (0.5 nM) was 0.998 ± 0.085; in test [1] (1 nM) it was 0.872 ± 0.14; in test [1] (5 nM), 0.944 ± 0.082; in test [1] (10 nM) it was 0.959 ± 0.075; in test [1] (50 nM), 0.923 ± 0.12; in test [1] (100 nM), 0.985 ± 0.12. Also, the surviving fraction in test [1] (500 nM) came out at 1.01 ± 0.068; in test [1] (1000 nM) it was 0.897 ± 0.17; in test [2] (0.5 nM) it was 0.81 ± 0.081; in test [2] (1 nM), 0.76 ± 0.082; in test [2] (5 nM), 0.841 ± 0.024; in test [2] (10 nM) it was 0.899 ± 0.077. The surviving fraction in test [2] (50 nM) turned out to be 1.13 ± 0.1; in test [2] (100 nM), 0.987 ± 0.19; in test [2] (500 nM) it was 0.681 ± 0.061; in test [2] (1000 nM) it was 0.668 ± 0.13.
With HT1080 SOFT TISSUE, the surviving fraction in test [1] (0.5 nM) came to 1 ± 0.012; in test [1] (1 nM) it was 0.989 ± 0.026; in test [1] (5 nM), 0.982 ± 0.016; in test [1] (10 nM), 1.04 ± 0.016; in test [1] (50 nM), 1.02 ± 0.041; in test [1] (100 nM), 0.974 ± 0.022. Further, the surviving fraction in test [1] (500 nM) amounted to 0.81 ± 0.013; in test [1] (1000 nM), 0.594 ± 0.036; in test [2] (0.5 nM) it was 1 ± 0.028; in test [2] (1 nM) it was 1.01 ± 0.029; in test [2] (5 nM) it was 1.02 ± 0.053; in test [2] (10 nM), 0.935 ± 0.053. Also, the surviving fraction in test [2] (50 nM) is 0.591 ± 0.025; in test [2] (100 nM), 0.434 ± 0.012; in test [2] (500 nM) it was 0.314 ± 0.012; in test [2] (1000 nM) it was 0.271 ± 0.0047.
As for HU09 BONE, the surviving fraction in test [1] (0.5 nM) was determined as 0.964 ± 0.059; in test [1] (1 nM) it was 1.05 ± 0.071; in test [1] (5 nM), 1.05 ± 0.041; in test [1] (10 nM), 1.1 ± 0.074; in test [1] (50 nM), 1.04 ± 0.062; in test [1] (100 nM) it was 1.09 ± 0.089. Also, the surviving fraction in test [1] (500 nM) was found to be 1.06 ± 0.015; in test [1] (1000 nM), 0.927 ± 0.11; in test [2] (0.5 nM) it was 0.854 ± 0.062; in test [2] (1 nM) it was 0.812 ± 0.027; in test [2] (5 nM), 0.97 ± 0.061; in test [2] (10 nM), 0.882 ± 0.018. Also, the surviving fraction in test [2] (50 nM) turned out to be 0.857 ± 0.021; in test [2] (100 nM) it was 0.537 ± 0.042; in test [2] (500 nM) it was 0.0813 ± 0.0049; in test [2] (1000 nM), 0.0557 ± 0.0035.
